Reference: EP4043435A1, “COMPOUND FOR DETECTING SENESCENT CELLS AND USE THEREOF” (Universitat Politècnica de València, priority 2019, dated 2021)

Legend:
[1] = tested on: 4T1 cells; test: Viability assay (CellTiter-GLO Luminescent Cell Viability Assay) in control and senescent cells; type: cell-based, mouse; details: 4T1 control and senescent cells, different concentrations, 24 h of incubation
Method: Mouse mammary carcinoma 4T1 cells were cultured in DMEM supplemented with 10 % FBS and incubated in 20 % O2 and 5 % CO2 at 37 °C. To obtain cellular senescence, the cells were incubated with 5 µM of Palbociclib in DMEM for one week. Subsequently, the cells were seeded in a flat clear-bottom 96-well plate with a density of 6000 cells for senescent cells and 4000 in the control cells. After 24 h, the cells were treated with different concentrations of probe Cy7-Gal and its fluorophore (Cy7). Viability measurements were obtained after 24 h of incubation using CellTiter-GLO Luminescent Cell Viability Assay as a developer.

[2] = tested on: 4T1 cell tumours; test: Ex vivo IVIS fluorescence of extracted tumours and organs; type: in vivo, female BALB/cByJ mice; details: after sacrifice, different Palbociclib groups (FIG. 8d)
Method: The mice were kept in the Prince Phillip Research Centre (Centro de Investigación Príncipe Felipe (CIPF)) following the recommendations of the Federation of European Laboratory Animal Science Associations (FELASA). All the processes applied on the animals were approved by the Technical Research Committee for Animal Welfare (Comité Técnico de Investigación para el bienestar de los animals, CElyBA). 4T1 mammary tumours were generated using 4T1 cells: The cells were cultured in DMEM supplemented with 10 % FBS and penicillin-streptomycin. To generate the formation of mammary tumours, the cells were trypsinised and counted with a LUNA ™ automated cell counter and injected by subcutaneous route into the left mammary of 28- to 34-week-old female BALB/CBY mice at a concentration of […] in a volume of 100 µl. The volume of the tumour was measured every two days with a gauge and calculated as V = (a x b2) / 2, wherein a is the longest and b is the shortest of two perpendicular diameters. […] The mice were monitored for 15 minutes post-injection of the probe in the IVIS® equipment following the accumulation of fluorophore Cy7 in the bladder after the hydrolysis of probe Cy7-Gal in the presence of senescent cells. […] The measurement of fluorescence in organs and tumours for the different groups of mice was performed with the IVIS technique.

[3] = tested on: 4T1 cells; test: Confocal microscopy of fluorescence emission in control and Palbociclib-induced senescent cells; type: cell-based, mouse
Method: Mouse mammary carcinoma 4T1 cells were cultured in DMEM supplemented with 10 % FBS and incubated in 20 % O2 and 5 % CO2 at 37 °C. The cells were incubated with 5 µM of Palbociclib in DMEM for one week to induce the senescence process. Subsequently, the cells were seeded in a flat clear-bottom 96-well plate with a density of 6000 cells for senescent cells and 4000 in the control cells (without prior treatment with Palbociclib). After 24 hours, the cells were incubated with different concentrations of probe Cy7-Gal and its fluorophore (Cy7), with confocal microscopy images being acquired after 30 min of incubation. A more than 10-fold increase in fluorescence emission is observed between senescent cells treated with probe Cy7-Gal and untreated senescent cells (self-fluorescence signal).

[4] = tested on: 4T1 mammary tumours; test: In vivo detection of senescence through urine and bladder fluorescence (IVIS and fluorescence spectroscopy) in mice bearing mammary tumours; set-up: species or system female BALB/cByJ mice
Method: Urine fluorescence measurements were carried out by taking 5 µl of urine and diluting it in distilled water to 100 µl. The samples were obtained by exciting at 535 nm and collecting the absorption maximum at 566 nm.
The Palbociclib was administered through an oral probe daily for 7 days at different concentrations of 10 mg / kg, 50 mg / kg and 100 mg / kg dissolved in 50 mM sodium lactate at pH 5 in order to induce senescence. […] The mice were monitored for 15 minutes post-injection of the probe in the IVIS® equipment following the accumulation of fluorophore Cy7 in the bladder after the hydrolysis of probe Cy7-Gal in the presence of senescent cells.

CC(=O)OC[C@H]1O[C@@H](Oc2ccc(/C=C/C3=[N+](CCCCS(=O)(=O)[O-])c4ccccc4C3(C)C)cc2/C=C/C2=[N+](CCCCS(=O)(=O)[O-])c3ccccc3C2(C)C)[C@H](OC(C)=O)[C@@H](OC(C)=O)[C@H]1OC(C)=O [Cy7-Gal]
toxicity (viability) [1]: minimum toxicity
fluorescence signal in tumours and most representative organs (IVIS) [2]: a signal is only observed in senescent tumours, and no signal is observed in the different organs
increase in fluorescence emission between senescent cells and control cells ([3]; both incubated in the presence of probe, compared with the more than 10-fold increase over untreated senescent cells, 30 min of incubation): slightly higher
increase in fluorescence emission ([3]; senescent 4T1 cells (5 µM Palbociclib, one week) treated with probe vs untreated senescent cells (self-fluorescence signal), 30 min of incubation): more than 10 fold
selectivity of the probe for detecting senescent cells ([3]; senescent vs control 4T1 cells): high selectivity
expulsion from the organism through urine ([4]; female mice urinated after coming out from under anaesthesia, monitored 15 minutes post-injection): expelled from the organism
fluorescence emission of the urine samples vs degree of cellular senescence ([4]; mice with 4T1 tumours given Palbociclib 10, 50 or 100 mg/kg orally for 7 days, then probe 23.3 mg/ml in 100 µl, IVIS and fluorescence spectroscopy): correspondence between the fluorescence emission of the urine samples and the degree of cellular senescence
